Source: the NIST ThermoML archive (doi:10.1016/j.jct.2015.04.029)
± gives the expanded uncertainty stated by the source.

Tests used:
[1] = for mass density: 101.33 kPa, Vibrating tube method; for mass density / surface tension liquid-gas: Liquid; for surface tension liquid-gas: Maximal bubble pressure; for Glass transition temperature: DSC
[2] = refractive index (Na D-line) (dimensionless); settings: 101.33 kPa, Liquid, Standard Abbe refractometry

What does the source list for `CCCCn1cc[n+](C)c1.N[C@@H](CO)C(=O)[O-]` [1-butyl-3-methylimidazolium L-serinate]?
mass density ([1]; 298.15 K): 1156.04 ± 1.1 kg/m3; surface tension liquid-gas ([1]; 298.15 K): 45.4 ± 0.4 mN/m; mass density ([1]; 303.15 K): 1152.82 ± 1.1 kg/m3; surface tension liquid-gas ([1]; 303.15 K): 45.2 ± 0.4 mN/m; mass density ([1]; 308.15 K): 1149.61 ± 1.1 kg/m3; surface tension liquid-gas ([1]; 308.15 K): 45 ± 0.4 mN/m; mass density ([1]; 313.15 K): 1146.45 ± 1.1 kg/m3; surface tension liquid-gas ([1]; 313.15 K): 44.7 ± 0.4 mN/m; mass density ([1]; 318.15 K): 1143.31 ± 1.1 kg/m3; surface tension liquid-gas ([1]; 318.15 K): 44.4 ± 0.4 mN/m; mass density ([1]; 323.15 K): 1140.08 ± 1.1 kg/m3; surface tension liquid-gas ([1]; 323.15 K): 44.3 ± 0.4 mN/m; mass density ([1]; 328.15 K): 1136.91 ± 1.1 kg/m3; surface tension liquid-gas ([1]; 328.15 K): 44 ± 0.4 mN/m; mass density ([1]; 333.15 K): 1133.81 ± 1.1 kg/m3; surface tension liquid-gas ([1]; 333.15 K): 43.8 ± 0.4 mN/m; mass density ([1]; 338.15 K): 1130.64 ± 1.1 kg/m3; surface tension liquid-gas ([1]; 338.15 K): 43.5 ± 0.4 mN/m; Glass transition temperature [1]: -47.20 ± 1 °C; refractive index ([2]; 298.15 K): 1.5143 ± 0.0005; refractive index ([2]; 303.15 K): 1.5135 ± 0.0005; refractive index ([2]; 308.15 K): 1.5126 ± 0.0005; refractive index ([2]; 313.15 K): 1.5114 ± 0.0005; refractive index ([2]; 318.15 K): 1.5106 ± 0.0005; refractive index ([2]; 323.15 K): 1.5096 ± 0.0005; refractive index ([2]; 328.15 K): 1.5091 ± 0.0005; refractive index ([2]; 333.15 K): 1.5077 ± 0.0005; refractive index ([2]; 338.15 K): 1.5069 ± 0.0005

Which mass density ([1]; 298.15 K) does the source give for `CCC[n+]1ccn(C)c1.N[C@@H](CO)C(=O)[O-]` [1-methyl-3-propylimidazolium L-serinate] here?
Its mass density is 1181.51 ± 1.1 kg/m3.

And the surface tension liquid-gas ([1]; 298.15 K)?
Its surface tension liquid-gas is 46.8 ± 0.5 mN/m.

And the mass density ([1]; 303.15 K)?
The mass density was 1178.34 ± 1.1 kg/m3.

And the surface tension liquid-gas ([1]; 303.15 K)?
The surface tension liquid-gas was 46.6 ± 0.4 mN/m.

And the mass density ([1]; 308.15 K)?
Its mass density is 1175.19 ± 1.1 kg/m3.

What about the surface tension liquid-gas ([1]; 308.15 K) of the same compound?
The surface tension liquid-gas was 46.4 ± 0.4 mN/m.

And the mass density ([1]; 313.15 K)?
Its mass density is 1172.03 ± 1.1 kg/m3.

And the surface tension liquid-gas ([1]; 313.15 K)?
The surface tension liquid-gas was 46.1 ± 0.4 mN/m.

What about the mass density ([1]; 318.15 K) of the same compound?
The mass density was 1168.88 ± 1.1 kg/m3.

And the surface tension liquid-gas ([1]; 318.15 K)?
The surface tension liquid-gas was 45.8 ± 0.4 mN/m.

And the mass density ([1]; 323.15 K)?
The mass density was 1165.67 ± 1.1 kg/m3.

What about the surface tension liquid-gas ([1]; 323.15 K) of the same compound?
Its surface tension liquid-gas is 45.6 ± 0.4 mN/m.

And the mass density ([1]; 328.15 K)?
Its mass density is 1162.6 ± 1.1 kg/m3.

And the surface tension liquid-gas ([1]; 328.15 K)?
The surface tension liquid-gas was 45.4 ± 0.4 mN/m.

What about the mass density ([1]; 333.15 K) of the same compound?
Its mass density is 1159.49 ± 1.1 kg/m3.

And the surface tension liquid-gas ([1]; 333.15 K)?
Its surface tension liquid-gas is 45.1 ± 0.4 mN/m.

What about the mass density ([1]; 338.15 K) of the same compound?
The mass density was 1156.42 ± 1.1 kg/m3.

And the surface tension liquid-gas ([1]; 338.15 K)?
Its surface tension liquid-gas is 44.9 ± 0.4 mN/m.

And the Glass transition temperature [1]?
Its Glass transition temperature is -54.5 ± 1 °C.

What about the refractive index ([2]; 298.15 K) of the same compound?
Its refractive index is 1.5179 ± 0.0005.

And the refractive index ([2]; 303.15 K)?
The refractive index was 1.5165 ± 0.0005.

And the refractive index ([2]; 308.15 K)?
The refractive index was 1.5153 ± 0.0005.

What about the refractive index ([2]; 313.15 K) of the same compound?
The refractive index was 1.5141 ± 0.0005.

And the refractive index ([2]; 318.15 K)?
The refractive index was 1.5131 ± 0.0005.

And the refractive index ([2]; 323.15 K)?
The refractive index was 1.5123 ± 0.0005.

And the refractive index ([2]; 328.15 K)?
Its refractive index is 1.5112 ± 0.0005.

And the refractive index ([2]; 333.15 K)?
Its refractive index is 1.51 ± 0.0005.

What about the refractive index ([2]; 338.15 K) of the same compound?
The refractive index was 1.5086 ± 0.0005.
